Laboratory results: article PMC2990756, “Quantitative High-Throughput Screening Identifies 8-Hydroxyquinolines as Cell-Active Histone Demethylase Inhibitors” (PLoS ONE, 2010)
Where two headings read alike, the source gives them in different places.

Legend:
Type in all cases: biochemical
[1] = target: T1, JMJD2E (KDM4E) (Homo sapiens, UniProt B2RXH2); test: qHTS fluorescence FDH-coupled JMJD2E demethylase assay; details: Table S1; unit not in table, from Figure 2; read-out: qHTS Data: jmjd2e IC50
T1 construct: The catalytic domain of human JMJD2E (residues 1–337); His6 (N); made in house; host or cells: E. coli
T1 sequence (B2RXH2 1-337): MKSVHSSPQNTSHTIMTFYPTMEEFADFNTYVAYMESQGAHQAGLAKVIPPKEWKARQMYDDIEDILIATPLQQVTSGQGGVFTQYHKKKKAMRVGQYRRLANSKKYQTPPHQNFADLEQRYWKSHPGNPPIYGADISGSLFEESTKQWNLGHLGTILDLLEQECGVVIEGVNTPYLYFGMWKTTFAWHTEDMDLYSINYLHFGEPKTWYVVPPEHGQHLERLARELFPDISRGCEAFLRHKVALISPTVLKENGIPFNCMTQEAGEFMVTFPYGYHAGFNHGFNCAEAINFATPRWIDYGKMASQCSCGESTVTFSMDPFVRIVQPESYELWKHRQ

[2] = target: T2, formaldehyde dehydrogenase (FDH) (Pseudomonas putida, UniProt P46154); test: FDH coupling enzyme counterscreen; details: Table S1, FDH counterscreen; for IC50: unit not in table, from Figure 2, read-out: qHTS Data: jmjd2e fdh IC50
T2 construct: purchased Sigma-Aldrich
T2 sequence (P46154 whole entry): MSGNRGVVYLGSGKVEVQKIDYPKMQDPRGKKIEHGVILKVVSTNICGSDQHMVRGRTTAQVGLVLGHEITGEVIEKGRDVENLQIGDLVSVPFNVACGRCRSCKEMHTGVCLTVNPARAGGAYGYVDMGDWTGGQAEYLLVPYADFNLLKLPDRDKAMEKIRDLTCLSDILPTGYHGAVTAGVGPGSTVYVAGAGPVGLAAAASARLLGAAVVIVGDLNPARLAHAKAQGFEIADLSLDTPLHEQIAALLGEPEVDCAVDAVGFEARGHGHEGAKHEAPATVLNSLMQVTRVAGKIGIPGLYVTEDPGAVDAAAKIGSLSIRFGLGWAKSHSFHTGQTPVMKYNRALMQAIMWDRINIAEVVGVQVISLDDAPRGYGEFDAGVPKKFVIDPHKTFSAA
From the text: Dimethylsulfoxide certified ACS grade (DMSO) was from Fisher, Inc. HEPES buffer was obtained from Gibco. […] Black solid-bottom 1,536-well assay plates were from Greiner Bio-One (Monroe, NC).

[3] = target: T3, JMJD2E (Homo sapiens, UniProt B2RXH2); test: JMJD2E FDH-coupled assay under low and high iron conditions (iron chelation profile); parameters: The catalytic domain of human JMJD2E (residues 1–337); His6 (N); made in house; host or cells: E. coli; details: Table S1; for IC50: unit not in table, from Figure 2
T3 sequence (B2RXH2 1-337): T1 sequence (B2RXH2 1-337)
Method: The prioritized compounds were also evaluated in the screening assay using two different ferrous ion concentrations (termed high iron and low iron, respectively), in order to assess their propensity for iron chelation.
The ratio of IC50 values under high iron to low iron was calculated for each compound.

[4] = high iron, head says 20 µM FAS, read-out: qHTS Data: jmjd2e fas20um IC50
[5] = low iron 2.5 µM FAS, read-out: qHTS Data: jmjd2e fas2.5um IC50

SMILES	IC50 [1] [µM]	qHTS Data: jmjd2e fdh CurveClass [2]	IC50 [3, 4] [µM]	IC50 [3, 5] [µM]	qHTS Data: jmjd2e fas20um CurveClass ([3]; high iron)	IC50 [2] [nM]	qHTS Data: jmjd2e fas2.5um Curve comment ([3]; low iron 2.5 µM FAS)
Cl.NC(CO)C(=O)NNCc1ccc(O)c(O)c1O (centres unmarked) [compound 855739]	2.24	Inactive	3.98	1.78			
O=C(O)c1cccc(C(=O)O)n1 [compound 863941]	8.91	Inactive	7.94	2.82			
CCOC(=O)Cc1csc(-n2sc3ccccc3c2=O)n1 [compound 3716597]	10	Inactive		7.08	Inactive		
Oc1ccc(CN2CCCc3ccccc32)c2cccnc12 [compound 4249321]	8.91	Inactive		1.26	Inactive		
O=C(CC1Sc2ncnn2C1=O)Nc1ccc(Br)cc1 (centres unmarked) [compound 7966079]	2.24		1	2		280	
COc1ccc(NC(=O)CC2Sc3ncnn3C2=O)cc1 (centres unmarked) [compound 7968088]	2		12.6	1.78		280	
COc1ccc(N2C(=O)CC(Sc3ncn[nH]3)C2=O)c(OC)c1 (centres unmarked) [compound 7974422]	2.82		35.5	1.41	Poor quality curve	320	
O=Cc1ccc(O)c(O)c1 [compound 8139931]	4.47	Inactive		3.55	Inactive		
Cc1cc2c(C(C)C)c(O)c(O)c(C=O)c2c(O)c1-c1c(C)cc2c(C(C)C)c(O)c(O)c(C=O)c2c1O [compound 11112318]	7.94		15.8	1.12		31600	
C[C@@](N)(Cc1ccc(O)c(O)c1)C(=O)O [compound 11112415]	4.47	Inactive	2	4.47			
C[C@H](N)[C@H](O)c1ccc(O)c(O)c1 [compound 11112447]	4.47	Inactive	2.24	3.98			
CN(C)[C@H]1C(=O)C(C(=O)NCN[C@@H](CCCCN)C(=O)O)=C(O)[C@]2(O)C(=O)C3=C(O)c4c(O)cccc4[C@@](C)(O)[C@H]3C[C@@H]12 [compound 11112463]	8.91	Inactive	15.8	14.1			
CN1CC[C@]2(C)c3cc(O)ccc3N(C)[C@@H]12 [compound 11112885]	2.24	Inconclusive	7.08	8.91			
O=C(O)c1cccnc1C(=O)O [compound 11113416]	1.78	Inactive	11.2	7.94			
Cc1ccc(N2C(=O)CC(Sc3ncn[nH]3)C2=O)cc1C (centres unmarked) [compound 14726720]	1.26			1.41	Inactive	220	
Cc1ccc(N2C(=O)CC(Sc3ncn[nH]3)C2=O)cc1 (centres unmarked) [compound 14726735]	2.51		31.6	2	Poor quality curve	320	
CC(C)c1ccc(N2C(=O)CC(Sc3ncn[nH]3)C2=O)cc1 (centres unmarked) [compound 14726804]	1.58		19.9	2.51	Poor quality curve	250	
O=C1CC(Sc2ncn[nH]2)C(=O)N1c1ccccc1 (centres unmarked) [compound 14730480]	2.24			2.51	Inactive	320	
Cc1cc(C(=O)NNC(=S)NC(=O)/C=C/c2ccccc2Cl)n[nH]1 [compound 14736067]	7.94	Inactive		8.91	Inactive		
C=CCc1c(C)nc(C)nc1N/N=C/c1ccccc1O [compound 14741635]	3.16	Inactive		3.16	Inactive		

SMILES	IC50 [1] [µM]	qHTS Data: jmjd2e fdh CurveClass [2]	IC50 [3, 4] [µM]	IC50 [3, 5] [µM]	qHTS Data: jmjd2e fas20um CurveClass ([3]; high iron)	IC50 [2] [nM]	qHTS Data: jmjd2e fas2.5um Curve comment ([3]; low iron 2.5 µM FAS)
O=[N+]([O-])c1ccc(O)c(/C=N/Nc2ccc(Cl)nn2)c1 [compound 17416266]	5.62	Inactive		5.62	Inactive		
O=C(NC(=S)NNC(=O)c1ccccc1O)c1ccco1 [compound 17504924]	7.08	Poor quality curve		3.55	Inactive	2820	
COc1ccc(-c2cc(=O)n(CCC#N)[nH]2)cc1 [compound 17508964]	1.78	Inactive	12.6				Inactive
O=C(CSc1ncn[nH]1)c1cccc([N+](=O)[O-])c1 [compound 17510781]	7.94		14.1	10		890	
COc1ccccc1NC(=S)NNC(=O)c1nn(C)c(C)c1Br [compound 22404294]	7.94	Inactive	2.51	3.98			
O=C(OCC1O[C@@H](OC(=O)c2cc(O)c(O)c(O)c2)[C@@H](OC(=O)c2cc(O)c(O)c(O)c2)[C@@H](OC(=O)c2cc(O)c(O)c(O)c2)[C@@H]1OC(=O)c1cc(O)c(O)c(O)c1)c1cc(O)c(O)c(O)c1 (some centres unmarked) [compound 22405492]	3.16	Inactive	14.1	1.12			
CCN(CC)c1ccc(N=Cc2c(C)[nH]c3ccccc23)cc1 [compound 22412852]	0.79	Inactive	7.94	12.6			Poor quality curve
Cc1ccc(O)c(N=NC2=C(O)CC(C)(C)CC2=O)c1 [compound 22414549]	0.56	Inactive		5.62	Inactive		
COc1ccc(-n2c(C)cc(/C=N/Nc3nnc(C)n3N)c2C)cc1.Cl [compound 22416865]	0.71	Poor quality curve	5.01	5.01		28200	
CCN1/C(=C\c2ccc3ccccc3[n+]2CC)Sc2cc(C)ccc21.[I-] [compound 24782097]	1.41	Poor quality curve	14.1	17.8	Poor quality curve	22400	Poor quality curve
O=C(CSc1ncn[nH]1)CSc1ncn[nH]1 [compound 24783149]	3.55			6.31	Inactive	1000	
Cc1ccnc(NC(c2cccnc2)c2ccc3cccnc3c2O)c1 (centres unmarked) [compound 24794739]	5.62	Poor quality curve	14.1	11.2		30	
O=C(CC1Sc2ncnn2C1=O)Nc1ccc(Cl)cc1 (centres unmarked) [compound 24795544]	1.58		7.94	2		250	
Oc1ccc(NCc2cccc(OCc3ccccc3)c2)cc1 [compound 24795995]	4.47	Inactive	35.5	14.1			
Cc1cc(C(=O)NNC(=S)Nc2ccccc2)nn1C [compound 24796479]	8.91	Inactive	7.94	7.08			
CCOC(=O)c1ccc(CC(=O)c2ccc(O)c(O)c2O)o1 [compound 24797852]	3.16	Inactive	10	1.41			
CN(C)c1ccnc(C(=O)O)c1 [compound 24815512]	2.82	Inactive	15.8		Poor quality curve		Inactive
NC(=O)c1ccc(-n2nnnc2SCC(=O)c2ccc(O)c(O)c2)cc1 [compound 24821381]	0.71	Inactive		7.94	Inactive		
Oc1c(C(Nc2nccs2)c2ccc(C(F)(F)F)cc2)ccc2cccnc12 (centres unmarked) [compound 24832893]	3.55	Inactive	12.6	28.2			
